Laboratory results: article PMC6968521, “Novel CDKs inhibitors for the treatment of solid tumour by simultaneously regulating the cell cycle and transcription control” (Journal of Enzyme Inhibition and Medicinal Chemistry, 2020)

Assays:
MCF7 cells [1] = test: Cell cycle assay (propidium iodide, flow cytometry), MCF7; assay type: cell-based, human; conditions: 24 h treatment, vs DMSO
Procedure: (§1) Cells were harvested and washed with phosphate buffered saline (PBS) for three times and then fixed with ice cold 75% ethanol overnight. The fixed cells were then washed with PBS and stained with propidium iodide ([…]) in the presence of RNase A (0.5 mg) for 30 min at 37 °C. The stained cells were then subjected to flow cytometry (Modfit, BD) for cell cycle analysis.

A549 cells [2] = test: Cell cycle assay (propidium iodide, flow cytometry), A549; assay type: cell-based, human; conditions: 24 h treatment, vs DMSO
Procedure: as §1

A549 cells [3] = test: CCK-8 cytotoxicity assay, A549; assay type: cell-based; conditions: Homo sapiens, CCK-8, 72 h incubation, three independent experiments, read-out: In vitro cell growth inhibition IC50, A549
Procedure: (§2) All the human cancer cell lines were obtained from ATCC. Cells were cultured in RPMI-1640 (BioInd) medium according to the instructions from ATCC, with the medium containing 10% FBS (BioInd), 1% antibiotics (penicillin and streptomycin) at 37 °C in an atmosphere of 5% CO2.
(§3) Cytotoxicity assay were conducted as described previously using a Cell Counting Kit-8 (CCK-8) assay (#CK04, Dojindo, Kumamoto, Japan)[37].

H460 cells = test: CCK-8 cytotoxicity assay, H460; assay type: cell-based; conditions: Homo sapiens, NCI-H460; CCK-8, 72 h incubation, three independent experiments; read-out: In vitro cell growth inhibition IC50, H460
Procedure: as §2, §3

A549 cells [4] = test: Annexin V-FITC/PI apoptosis assay, A549; assay type: cell-based, human; conditions: 48 h incubation, compared to DMSO or ribociclib
Procedure: (§4) Cells at a density of 3 × 10^5 cells/mL were seeded in six-well plates and treated with compounds at different concentrations for 48 h. The cells were then harvested and washed twice with cold PBS. Then the cells were subjected to an Annexin V/PI Apoptosis Detection kit (BD Biosciences) for staining according to manufacture’s instructions, and finally analysed by flow cytometry (Modfit, BD).

CDK6 = molecular target: T1, CDK6 (Homo sapiens, UniProt Q00534); test: Kinase inhibition assay (KinaseProfiler, Eurofins), CDK6; assay type: biochemical
T1 construct: purchased Eurofins (KinaseProfiler service)
Procedure: (§5) Kinase inhibition profiles were determined using KinaseProfiler services provided by Eurofins, and ATP concentrations used the Km of corresponding kinases.

CDK4 = molecular target: T2, CDK4 (Homo sapiens, UniProt P11802); test: Kinase inhibition assay (KinaseProfiler, Eurofins), CDK4; assay type: biochemical
T2 construct: purchased Eurofins (KinaseProfiler service)
Procedure: as §5

T-47D cells = test: CCK-8 cytotoxicity assay, T-47D; assay type: cell-based; conditions: Homo sapiens, T47D; CCK-8, 72 h incubation, three independent experiments; read-out: In vitro cell growth inhibition IC50, T-47D
Procedure: as §2, §3

MCF7 cells [5] = test: Annexin V-FITC/PI apoptosis assay, MCF7; assay type: cell-based, human; conditions: 0.1 to 0.5 µM, 48 h incubation
Procedure: as §4

H1299 cells = test: CCK-8 cytotoxicity assay, H1299; assay type: cell-based; conditions: Homo sapiens, NCI-H1299; CCK-8, 72 h incubation, three independent experiments; read-out: In vitro cell growth inhibition IC50, H1299
Procedure: as §2, §3

[6] = test system: RNAPII CTD Ser2 and Ser5 phosphorylation in A549 cells; test: Western blotting of RNAPII CTD phosphorylation, A549; assay type: cell-based, human; conditions: 24 h, vs DMSO
Procedure: (§6) Protein extraction and western blotting methods were performed as described previously. The antibodies used in this study including anti-β-actin (Santa Cruz; sc-47778), anti-p53 (CST; #9282), anti-phospho-p53^Ser15 (CST; #9284), anti-Bax (CST; #2772), anti-Bcl-2 (BD; #51-6511GR), anti-Rb (CST; #9309), anti-phospho-Rb^Ser807/811 (CST; #8516), anti-phospho-Rb^Ser780 (CST; #9307), anti-RNA polymerase II CTD (Abcam; ab817), anti-RNA polymerase II CTD^phospho S5 (Abcam; ab5131), anti-RNA polymerase II CTD^phospho S2 (Abcam; ab5095).

MCF7 cells [7] = test: CCK-8 cytotoxicity assay, MCF7; assay type: cell-based; conditions: Homo sapiens, CCK-8, 72 h incubation, three independent experiments, read-out: In vitro cell growth inhibition IC50, MCF7
Procedure: as §2, §3

4T1 breast cancer cells = test: CCK-8 cytotoxicity assay, 4T1; assay type: cell-based; conditions: CCK-8, 72 h incubation, three independent experiments; read-out: In vitro cell growth inhibition IC50, 4T1
Procedure: as §2, §3

[8] = test system: RNAPII CTD Ser2 and Ser5 phosphorylation in MCF7 cells; test: Western blotting of RNAPII CTD phosphorylation, MCF7; assay type: cell-based, human; conditions: 24 h, vs DMSO
Procedure: as §6

4T1 homograft tumours = test: In vivo 4T1 homograft tumour model; conditions: for Tumour inhibition rate: oral gavage daily for 18 days, 4T1 homograft in BALB/c mice
Procedure: 4T1 breast cancer cells (5 × 10^4) were injected in the mammary fat pads of 6 − 8 weeks old female BALB/c mice. Once the tumours grew to a volume of approximately 100–150 mm^3, they were placed into five treatment groups (n = 3, with a total tumour number of 15). The mice were treated daily for 18 days via oral gavage. Body weights and tumour size were determined every other day. Tumour measurements were found using a digital vernier calliper, and the volumes were determined using the following calculation: (short^2) × long × 0.5. Experiments were performed under an approved IACUC protocol according to federal and institutional guidelines and regulations. Inhibition rate of tumour growth was calculated using the following formula: 100 × {1 − [(tumour volumefinal − tumour volumeinitial) for X22-treated group]/[(tumour volumefinal − tumour volumeinitial) for the vehicle-treated group]}.

CDK9 = molecular target: T3, CDK9 (Homo sapiens, UniProt P50750); test: Kinase inhibition assay (KinaseProfiler, Eurofins), CDK9; assay type: biochemical
T3 construct: purchased Eurofins (KinaseProfiler service)
Procedure: as §5

[9] = ATP at Km, mean of two independent experiments

T1 sequence (Q00534 whole entry): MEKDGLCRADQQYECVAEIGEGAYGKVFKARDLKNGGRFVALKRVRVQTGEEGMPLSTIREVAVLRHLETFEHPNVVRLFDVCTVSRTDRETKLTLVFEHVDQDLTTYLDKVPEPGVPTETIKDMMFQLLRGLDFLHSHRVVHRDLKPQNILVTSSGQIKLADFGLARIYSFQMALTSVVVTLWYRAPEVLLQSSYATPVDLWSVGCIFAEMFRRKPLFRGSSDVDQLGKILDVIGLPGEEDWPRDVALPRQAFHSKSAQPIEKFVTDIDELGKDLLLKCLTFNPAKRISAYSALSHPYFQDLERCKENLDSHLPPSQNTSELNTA
T1 sequence (P30281 whole entry partner): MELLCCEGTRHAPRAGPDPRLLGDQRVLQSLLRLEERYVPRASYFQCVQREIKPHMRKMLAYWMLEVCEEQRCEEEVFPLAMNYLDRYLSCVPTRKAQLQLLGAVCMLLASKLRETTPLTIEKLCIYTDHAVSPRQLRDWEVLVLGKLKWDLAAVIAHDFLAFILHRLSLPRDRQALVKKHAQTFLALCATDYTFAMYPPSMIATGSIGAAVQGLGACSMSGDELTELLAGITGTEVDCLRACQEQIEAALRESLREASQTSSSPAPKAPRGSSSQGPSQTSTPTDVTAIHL
T3 sequence (P50750 whole entry): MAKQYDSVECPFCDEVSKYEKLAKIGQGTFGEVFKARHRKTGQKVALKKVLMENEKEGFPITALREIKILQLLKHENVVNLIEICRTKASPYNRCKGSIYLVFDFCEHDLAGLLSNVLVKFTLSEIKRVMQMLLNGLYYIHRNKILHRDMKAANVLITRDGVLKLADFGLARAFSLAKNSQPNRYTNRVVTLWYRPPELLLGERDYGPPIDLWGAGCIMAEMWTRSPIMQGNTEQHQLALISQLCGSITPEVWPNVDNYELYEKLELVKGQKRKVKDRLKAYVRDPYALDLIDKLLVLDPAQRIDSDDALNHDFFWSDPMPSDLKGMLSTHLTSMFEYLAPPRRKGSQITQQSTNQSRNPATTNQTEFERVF
T3 sequence (O60563 whole entry partner): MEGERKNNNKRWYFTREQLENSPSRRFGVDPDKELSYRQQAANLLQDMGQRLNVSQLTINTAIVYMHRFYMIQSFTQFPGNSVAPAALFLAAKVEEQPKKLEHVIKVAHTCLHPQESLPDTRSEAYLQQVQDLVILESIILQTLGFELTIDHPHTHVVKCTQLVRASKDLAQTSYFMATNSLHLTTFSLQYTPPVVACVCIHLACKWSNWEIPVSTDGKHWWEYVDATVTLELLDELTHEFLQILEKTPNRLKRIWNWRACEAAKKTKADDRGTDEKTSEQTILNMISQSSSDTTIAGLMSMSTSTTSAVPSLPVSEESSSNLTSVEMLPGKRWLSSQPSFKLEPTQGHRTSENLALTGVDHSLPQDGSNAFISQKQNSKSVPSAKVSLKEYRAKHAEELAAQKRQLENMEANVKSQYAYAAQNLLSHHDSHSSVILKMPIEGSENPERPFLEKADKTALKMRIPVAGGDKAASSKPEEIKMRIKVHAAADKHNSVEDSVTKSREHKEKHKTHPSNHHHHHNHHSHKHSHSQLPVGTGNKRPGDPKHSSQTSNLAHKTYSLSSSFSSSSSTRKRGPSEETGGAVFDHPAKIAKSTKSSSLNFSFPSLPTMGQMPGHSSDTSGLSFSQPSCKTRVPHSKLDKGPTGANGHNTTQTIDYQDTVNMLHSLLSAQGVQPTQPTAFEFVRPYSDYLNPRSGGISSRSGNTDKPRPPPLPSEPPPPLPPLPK
T2 sequence (P11802 whole entry): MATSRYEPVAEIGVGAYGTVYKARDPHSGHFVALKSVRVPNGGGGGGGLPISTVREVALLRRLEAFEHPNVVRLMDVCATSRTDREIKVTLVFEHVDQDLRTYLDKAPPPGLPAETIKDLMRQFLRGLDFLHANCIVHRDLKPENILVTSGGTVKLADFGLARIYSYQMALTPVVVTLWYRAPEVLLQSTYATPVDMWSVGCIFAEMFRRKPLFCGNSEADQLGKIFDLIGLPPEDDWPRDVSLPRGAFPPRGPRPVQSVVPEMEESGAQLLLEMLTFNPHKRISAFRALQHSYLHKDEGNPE
T2 sequence (P30281 whole entry partner): as the sequence (P30281 whole entry partner) above

## CN(C)C(=O)c1cc2cnc(Nc3ccc(CS(=O)(=O)CCCCCCN=C=S)cc3)nc2n1C1CCCC1 [X22]
MCF7 cells [1]
  Effect on the cell cycle: blocked the cell cycle at G2/M phase
A549 cells [2]
  Effect on the cell cycle: blocked the cell cycle at G2/M phase
A549 cells [3]
  IC50: 210 ± 70 nM
H460 cells
  IC50: 1800 ± 340 nM
A549 cells [4]
  Proportion of apoptotic cells (Q2 late apoptotic and Q3 early apoptotic): dose-dependently increased
CDK6
  inhibition at 1 µM: 91%
CDK6; [9]
  IC50: 126 ± 20.6 nM
CDK4
  inhibition at 1 µM: 97 ± 0.4%
CDK4; [9]
  IC50: 30 ± 3.9 nM
T-47D cells
  IC50: 110 ± 10 nM
MCF7 cells [5]
  Increase of the percentages of apoptotic cells compared to DMSO-treated cells: 2.2 to 3.5 fold change
H1299 cells
  IC50: 570 ± 70 nM
[6]
  Concentration that effectively inhibited the phosphorylation of Ser2 and Ser5 of RNAPII CTD: 1 µM
MCF7 cells [7]
  IC50: 110 ± 70 nM
4T1 breast cancer cells
  IC50: 83 nM
[8]
  Concentration that effectively inhibited the phosphorylation of Ser2 and Ser5 of RNAPII CTD: 0.5 µM
4T1 homograft tumours; 15 mg/kg
  Tumour inhibition rate: 51.8 ± 17.5%
4T1 homograft tumours; 30 mg/kg
  Tumour inhibition rate: 65.4 ± 11.7%
4T1 homograft tumours; 60 mg/kg
  Tumour inhibition rate: 70.3 ± 4.4%
4T1 homograft tumours; 15, 30 or 60 mg/kg oral daily, 18 days, BALB/c mice
  Signs of toxicity (preliminary toxicity evaluation): No obvious signs of toxicity
4T1 homograft tumours; day 18, compared with other groups
  Average tumour weight of excised tumours: obviously lighter
4T1 homograft tumours; monitored over 18 days, among the five groups of mice
  Mouse body weight: no significant difference
CDK9
  inhibition at 1 µM: 98%
CDK9; [9]
  IC50: 10 ± 1.3 nM
